The source of these data is PMC9898191 (Nature chemical biology, 2022).

Test [1] concerns the target Syk in MV4-11 cells (Homo sapiens, UniProt P43405). Kind of test: WC36B-streptavidin pull down assay with immunoblotting. Type of test: binding. For orientation: Immunoblotting shows a protein as a band on a membrane.
Test [2] relates to PM translocation of EGFP-Syk WT in Syk−/− DT40 cells. Kind of test: Subcellular localization of EGFP-Syk WT in IgM-stimulated Syk-null DT40 cells. Format: cell-based. The note with it: 10 nM overnight.
In test [3] the test system is WC36B-binding cellular proteins of MV4-11 cells. Kind of test: Mass spectrometry-based proteomics of WC36B-binding cellular proteins. The arrangement: species or system human. The note with it: biotin as negative control.
Test [4] concerns HL60 cells. Kind of test: XTT cell proliferation assay, HL-60 cells. Type of test: cell-based.
In test [5] the test system is phosphorylation of ERK1/2 and STAT3/5 in RAS-mutated HL60 cells. Kind of test: Western blot of IgG2-stimulated phosphorylation in HL-60 cells. The note with it: 5 μM. Format: cell-based.
Test [6] concerns ZAP-70 phosphorylation in Jurkat T cells. Kind of test: Western blot of ZAP-70 phosphorylation in Jurkat T cells. Format: cell-based. The note with it: 5 μM overnight, OKT3 stimulated.
The subject of test [7] is phosphorylation of Syk, ERK1/2 and STAT3/5 in entospletinib-resistant MV4-11 cells. The note with it: 5 μM.

As to `Nc1ncnc2c1ncn2[C@@H]1O[C@H](COP(=O)(O)OP(=O)(O)OP(=O)(O)O)[C@@H](O)[C@H]1O` [ATP], in test [1] (WC36 10 μM, entospletinib 10 μM, ATP 1 mM), the “competition with WC36B for Syk binding” value is recorded as “only WC36 was able to compete”.

In the case of `CS(=O)(=O)N1CCN(Cc2cc3nc(-c4cccc5[nH]ncc45)nc(N4CCOCC4)c3s2)CC1` [GDC-0941], the “PM translocation of EGFP-Syk WT” value in test [2] was “greatly suppressed”.

With `[N-]=[N+]=C(C(=O)NCCNC(=O)CCCC[C@H]1SC[C@H]2NC(=O)N[C@H]21)C(Nc1ncccn1)c1c[nH]c2ccccc12` (some centres unmarked) [WC36B], the “capture of Syk by streptavidin beads pulldown” value in test [1] (MV4-11 cells, 5 μM, 24 h) is “targets Syk”. In test [3], the “proteins captured compared with biotin control” value is reported as “Syk is the single major protein”.

Turning to `c1cn2cc(-c3ccc4cn[nH]c4c3)nc(Nc3ccc(N4CCOCC4)cc3)c2n1` [entospletinib], the “suppression of proliferation (XTT assay)” value in test [4] is reported as “ineffective”. For the same molecule, in test [5], the “suppression of phosphorylation of ERK1/2 and STAT3/5” value is “could not suppress phosphorylation”. Besides, the “inhibition of ZAP-70 phosphorylation” value in test [6] is “significantly inhibited”. For the same molecule, in test [7], the “inhibition of phosphorylation of Syk, ERK1/2 and STAT3/5” value is recorded as “could not inhibit phosphorylation”.
